Assay results published in paper PMC2832019, “In Vitro Metabolic and Mitogenic Signaling of Insulin Glargine and Its Metabolites” (PLoS ONE, 2010).

Experiments:
human IR-A [1] = test: IR-A autophosphorylation (In-Cell Western); assay type: cell-based; settings: for EC50: CHO cells overexpressing IR-A, 15 min at 37°C, In-Cell Western, means ± SEM, at least three times, read-out: IR-A auto-phosphorylation EC50
Excerpt: CHO cells expressing either the IR-A or the IR-B isoform were used for IR autophosphorylation assays using In-Cell Western. For the analysis of IGF1R autophosphorylation the receptor was overexpressed in a mouse embryo fibroblast 3T3 Tet off cell line (BD Bioscience, Heidelberg, Germany) that was stably transfected with IGF1R tetracycline-regulatable expression plasmid resulting in the expression of ∼2.6×10^5 IGF1R per cell (as determined by FACS analysis, unpublished data). In order to determine the receptor tyrosine phosphorylation level, cells were seeded into 96-well plates and grown for 48 h. Cells were serum starved with serum-free medium αMEM (PAN Biotech GmbH, Aidenbach, Germany) for 3–4 h. […] After incubation the medium was discarded and the cells were fixed in 3.75% freshly prepared para-formaldehyde for 20 min. Cells were permeabilized with 0.1% Triton-X-100 in PBS for 20 min. Blocking was performed with Odyssey blocking buffer (LI-COR, Bad Homburg, Germany) overnight at 4°C. Anti-pTyr 4G10 (Millipore, Schwalbach, Germany) was incubated for 2 h at room temperature. After incubation of the primary antibody, cells were washed with PBS+0.1% Tween20. The secondary anti-mouse-IgG-800-CW antibody (Rockland, Gilbertsville, PA, USA) was incubated for 1 h. Results were normalized by the quantification of DNA with TO-PRO3 dye (Invitrogen, Karlsruhe, Germany). Data were obtained as relative units (RU) and are presented as fold over basal.
(§1) For each experiment, IC50 or EC50 values were obtained using the 4-parameter logistic model according to Ratkowsky and Reedy (1986). The adjustment was obtained by non-linear regression using the Levenberg-Marquardt algorithm in SAS v9.1.3 software via Biost@t-Speed V2.0-LTS internal application. If necessary, lower and upper asymptotes were set to 0 and 100, respectively.
(§2) The binding of a constant concentration of [^125I]insulin to plasma membranes from CHO cells overexpressing either IR-A or IR-B was measured in presence of increasing concentrations of unlabeled competing ligand after incubation at room temperature for 12 h. All data has been corrected for non-specific binding and are expressed as percentage of [^125I]insulin in absence of competing ligand. To analyze the insulin-stimulated activation and subsequent autophosphorylation of the insulin receptor CHO cells overexpressing the human IR-A (C) or IR-B (D) were stimulated for 15 min at 37°C with increasing concentrations of peptides, then the cells were fixed with 3.7% PFA and the amount of phosphotyrosines was analyzed via In-Cell Western. The data represent mean values ± SEM of at least 3 individual experiments measured in quadruplicate.
Insulin receptor autophosphorylation was studied using CHO cells overexpressing either IR-A or IR-B. For detection an immunocytochemical microplate assay (In-Cell Western) based on two-colour fluorescence was applied.

human IR-A [2] = test: Competitive receptor binding (SPA), IR-A; settings: for higher affinity for IR-A than IR-B: IR-A relative to IR-B; for IC50: SPA, WGA PVT PEI beads, 2 µg membranes from CHO cells overexpressing IR-A, 100 pmol/L A14[^125I]-insulin, pH 7.8, 12 h, 23°C, means ± SEM, at least three times, read-out: IR-A affinity IC50; for difference in affinity between IR-A and IR-B: IR-A vs IR-B, in words; for IR-A binding, less active than human insulin: decrease relative to human insulin
Procedure: The binding of the different insulins to the human IR-A and IR-B was analyzed in a competitive binding assay using the scintillation proximity assay as previously described, [30]. […] Briefly, cells were grown to confluence and gently detached, transferred to a centrifugation tube followed by centrifugation for 10 minutes at 600×g at 4°C. The pellet was resuspended in ice-cold 2.25 STM buffer (2.25 mol/L sucrose, 5 mmol/L Tris-HCl pH 7.4, 5 mmol/L MgCl2, 1x Complete Protease Inhibitor) and disrupted using a hand-held Dounce homogenizer followed by sonication. This homogenate was transferred to a centrifugation tube, overlaid with 0.8 STM buffer (0.8 mol/L sucrose, 5 mmol/L Tris-HCl pH 7.4, 5 mmol/L MgCl2, 1x Complete Protease Inhibitor) and centrifuged for 90 minutes at 100 000×g at 4°C. The emerging pellicle at the interface was collected, transferred to a new tube and washed two times with PBS by centrifugation for 10 minutes at 1500×g. The final pellet was resuspended in a small volume of dilution buffer (50 mmol/L Tris-HCl pH 7.4, 5 mmol/L MgCl2, 1x Complete Protease Inhibitor) and homogenized with a Dounce homogenizer. These plasma membrane preparations were stored until usage at –80°C.
Binding experiments were conducted in 96-well microplates. Per well 2 µg of membranes were incubated with 0.25 mg wheat germ agglutinin polyvinyltoluene polyethylenimine SPA beads, 100 pmol/L A14[^125I]-insulin and various concentrations of unlabeled insulins in a binding buffer containing 0.05 mol/L Tris-HCl pH 7.8, 0.15 mol/L NaCl, 0.1% BSA, Complete Protease Inhibitor for 12 hours at room temperature (23°C). The radioactivity was measured at equilibrium in a microplate scintillation counter (Wallac Microbeta, Freiburg, Germany).
as §1, §2

Row | Substance | EC50 (human IR-A [1]) [nM] | higher affinity for IR-A than IR-B (human IR-A [2]) [fold] | IR-A affinity less potent than human insulin (human IR-A [2]; IR-A, relative to human insulin) | IC50 (human IR-A [2]) [nM] | difference in affinity between IR-A and IR-B (human IR-A [2]) | IR-A binding, less active than human insulin (human IR-A [2]) | IR-A binding, more potent relative to human insulin (human IR-A [2]; relative to human insulin) [fold] | decrease in IR-A autophosphorylation activity (human IR-A [1]; relative to human insulin)
1 | IGF-1: IGF-1 obtained from R&D Systems and Cell Sciences | 449 ± 61.7 | 2.7 | approximately 130 fold | 64.5 ± 5.1 |  |  |  | 
2 | [Gly^A21,Arg^B31]insulin [Glargine IM] | 23.1 ± 2.7 |  |  | 0.78 ± 0.03 | no difference | 40–50% |  | 
3 | [Asp^B10]insulin | 5.1 ± 0.7 | 3.5 |  | 0.06 ± 0.01 |  |  | 8.2 | 
4 | Human insulin: human insulin produced by recombinant DNA techniques or enzymatic semisynthesis | 11 ± 1.3 |  |  |  |  |  |  | 
5 | [Gly^A21,des-Thr^B30]insulin [Glargine M2] | 19.2 ± 1.6 |  |  | 0.93 ± 0.16 | no difference | 40–50% |  | 
6 | [Gly^A21]insulin [Glargine M1] | 18.6 ± 2.5 |  |  | 1.02 ± 0.03 | no difference | 40–50% |  | 
7 | [Gly^A21,Arg^B31,Arg^B32]insulin [Glargine] | 18.4 ± 2.4 |  |  | 0.83 ± 0.08 | no difference | 40–50% |  | 30–50%
